From BindingDB's records for patent US20230322769 (Jiangsu Chia Tai Fenghai Pharmaceutical, 2023)
“And” between values parts separate entries of the source, which are not always exact repeats. Identical values can stand only once.

What was measured:
[1] = target: Proto-oncogene tyrosine-protein kinase receptor Ret (Homo sapiens, UniProt P07949); assay: Inhibition of RET Family Kinases Activity
[2] = target: Vascular endothelial growth factor receptor 2 (Homo sapiens, UniProt P35968); assay: Inhibition of RET Family Kinases Activity
Chain of Vascular endothelial growth factor receptor 2 (P35968 whole entry): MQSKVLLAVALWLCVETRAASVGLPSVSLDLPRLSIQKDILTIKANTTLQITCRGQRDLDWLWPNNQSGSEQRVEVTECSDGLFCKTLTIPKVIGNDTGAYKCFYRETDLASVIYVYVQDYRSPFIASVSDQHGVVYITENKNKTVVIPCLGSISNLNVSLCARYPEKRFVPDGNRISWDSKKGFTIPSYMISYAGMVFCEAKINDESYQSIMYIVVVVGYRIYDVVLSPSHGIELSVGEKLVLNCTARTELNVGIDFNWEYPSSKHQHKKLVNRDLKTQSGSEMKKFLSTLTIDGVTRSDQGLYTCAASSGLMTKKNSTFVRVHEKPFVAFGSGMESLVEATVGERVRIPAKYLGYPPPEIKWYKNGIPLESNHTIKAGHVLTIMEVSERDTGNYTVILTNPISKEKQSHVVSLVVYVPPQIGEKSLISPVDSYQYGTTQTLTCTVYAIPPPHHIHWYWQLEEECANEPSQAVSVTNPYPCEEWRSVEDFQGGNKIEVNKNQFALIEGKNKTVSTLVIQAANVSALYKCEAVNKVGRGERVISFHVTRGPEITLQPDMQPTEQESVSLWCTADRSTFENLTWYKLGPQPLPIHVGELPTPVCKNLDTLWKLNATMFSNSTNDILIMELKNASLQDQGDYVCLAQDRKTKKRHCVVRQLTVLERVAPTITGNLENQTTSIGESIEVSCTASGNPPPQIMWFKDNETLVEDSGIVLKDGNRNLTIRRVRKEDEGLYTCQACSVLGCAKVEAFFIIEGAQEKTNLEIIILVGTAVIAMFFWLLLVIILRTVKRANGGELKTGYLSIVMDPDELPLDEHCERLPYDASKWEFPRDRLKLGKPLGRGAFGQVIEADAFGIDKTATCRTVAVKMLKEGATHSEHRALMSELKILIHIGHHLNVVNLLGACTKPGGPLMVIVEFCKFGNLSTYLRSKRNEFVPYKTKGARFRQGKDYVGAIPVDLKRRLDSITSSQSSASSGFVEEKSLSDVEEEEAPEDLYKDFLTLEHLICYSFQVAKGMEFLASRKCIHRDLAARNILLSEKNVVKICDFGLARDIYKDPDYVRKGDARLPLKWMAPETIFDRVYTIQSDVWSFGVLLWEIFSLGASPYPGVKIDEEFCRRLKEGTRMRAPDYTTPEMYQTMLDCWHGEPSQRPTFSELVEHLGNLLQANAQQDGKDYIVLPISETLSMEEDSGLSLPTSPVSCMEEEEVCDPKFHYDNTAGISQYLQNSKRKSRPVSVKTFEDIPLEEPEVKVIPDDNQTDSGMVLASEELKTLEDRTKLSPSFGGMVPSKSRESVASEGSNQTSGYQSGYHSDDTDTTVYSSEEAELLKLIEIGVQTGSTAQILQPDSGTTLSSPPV

[3] = target: Proto-oncogene tyrosine-protein kinase receptor Ret [M918T] (Homo sapiens, UniProt P07949, M918T); assay: Inhibition of RET Family Kinases Activity
Chain of Proto-oncogene tyrosine-protein kinase receptor Ret [M918T] (P07949 29-1114 M918T limits assumed): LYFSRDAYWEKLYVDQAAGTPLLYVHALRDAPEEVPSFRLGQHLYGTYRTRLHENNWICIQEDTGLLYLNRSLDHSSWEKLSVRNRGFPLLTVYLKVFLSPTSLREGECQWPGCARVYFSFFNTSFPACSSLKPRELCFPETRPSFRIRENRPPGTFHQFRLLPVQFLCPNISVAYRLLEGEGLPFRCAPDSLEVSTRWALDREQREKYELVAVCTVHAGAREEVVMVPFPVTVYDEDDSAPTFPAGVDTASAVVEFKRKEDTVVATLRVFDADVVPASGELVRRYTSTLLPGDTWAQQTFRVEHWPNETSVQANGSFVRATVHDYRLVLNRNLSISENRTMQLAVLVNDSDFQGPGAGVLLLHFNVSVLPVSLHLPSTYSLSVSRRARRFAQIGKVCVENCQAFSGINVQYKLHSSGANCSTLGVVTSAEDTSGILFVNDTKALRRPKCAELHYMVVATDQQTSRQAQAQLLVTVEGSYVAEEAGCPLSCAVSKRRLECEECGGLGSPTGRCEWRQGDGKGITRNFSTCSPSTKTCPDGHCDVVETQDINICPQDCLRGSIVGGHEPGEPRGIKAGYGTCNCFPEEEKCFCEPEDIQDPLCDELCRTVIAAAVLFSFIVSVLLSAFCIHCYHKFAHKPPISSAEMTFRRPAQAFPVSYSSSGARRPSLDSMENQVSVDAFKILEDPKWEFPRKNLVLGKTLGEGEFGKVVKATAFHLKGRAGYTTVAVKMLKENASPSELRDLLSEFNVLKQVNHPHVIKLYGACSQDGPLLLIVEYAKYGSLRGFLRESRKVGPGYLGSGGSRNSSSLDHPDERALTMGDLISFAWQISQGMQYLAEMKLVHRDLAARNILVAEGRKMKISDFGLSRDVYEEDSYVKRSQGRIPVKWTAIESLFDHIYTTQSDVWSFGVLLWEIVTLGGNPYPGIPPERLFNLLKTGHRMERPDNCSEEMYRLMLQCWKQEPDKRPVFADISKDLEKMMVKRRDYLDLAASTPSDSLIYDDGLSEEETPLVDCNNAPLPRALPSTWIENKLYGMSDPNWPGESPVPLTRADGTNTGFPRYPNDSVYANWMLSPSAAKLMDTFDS

[4] = target: Proto-oncogene tyrosine-protein kinase receptor Ret [V804M] (Human, UniProt P07949, V804M); assay: Inhibition of RET Family Kinases Activity
Chain of Proto-oncogene tyrosine-protein kinase receptor Ret [V804M] (P07949 29-1114 V804M limits assumed): as the sequence (P07949 29-1114 M918T limits assumed) above, with V776M, T890M counted along it

[5] = target: Coiled-coil domain-containing protein 6/Proto-oncogene tyrosine-protein kinase receptor Ret (Homo sapiens, UniProt P07949); assay: Inhibition of RET Family Kinases Activity
Chain of Coiled-coil domain-containing protein 6/Proto-oncogene tyrosine-protein kinase receptor Ret (P07949 whole entry, the tested form may be a part): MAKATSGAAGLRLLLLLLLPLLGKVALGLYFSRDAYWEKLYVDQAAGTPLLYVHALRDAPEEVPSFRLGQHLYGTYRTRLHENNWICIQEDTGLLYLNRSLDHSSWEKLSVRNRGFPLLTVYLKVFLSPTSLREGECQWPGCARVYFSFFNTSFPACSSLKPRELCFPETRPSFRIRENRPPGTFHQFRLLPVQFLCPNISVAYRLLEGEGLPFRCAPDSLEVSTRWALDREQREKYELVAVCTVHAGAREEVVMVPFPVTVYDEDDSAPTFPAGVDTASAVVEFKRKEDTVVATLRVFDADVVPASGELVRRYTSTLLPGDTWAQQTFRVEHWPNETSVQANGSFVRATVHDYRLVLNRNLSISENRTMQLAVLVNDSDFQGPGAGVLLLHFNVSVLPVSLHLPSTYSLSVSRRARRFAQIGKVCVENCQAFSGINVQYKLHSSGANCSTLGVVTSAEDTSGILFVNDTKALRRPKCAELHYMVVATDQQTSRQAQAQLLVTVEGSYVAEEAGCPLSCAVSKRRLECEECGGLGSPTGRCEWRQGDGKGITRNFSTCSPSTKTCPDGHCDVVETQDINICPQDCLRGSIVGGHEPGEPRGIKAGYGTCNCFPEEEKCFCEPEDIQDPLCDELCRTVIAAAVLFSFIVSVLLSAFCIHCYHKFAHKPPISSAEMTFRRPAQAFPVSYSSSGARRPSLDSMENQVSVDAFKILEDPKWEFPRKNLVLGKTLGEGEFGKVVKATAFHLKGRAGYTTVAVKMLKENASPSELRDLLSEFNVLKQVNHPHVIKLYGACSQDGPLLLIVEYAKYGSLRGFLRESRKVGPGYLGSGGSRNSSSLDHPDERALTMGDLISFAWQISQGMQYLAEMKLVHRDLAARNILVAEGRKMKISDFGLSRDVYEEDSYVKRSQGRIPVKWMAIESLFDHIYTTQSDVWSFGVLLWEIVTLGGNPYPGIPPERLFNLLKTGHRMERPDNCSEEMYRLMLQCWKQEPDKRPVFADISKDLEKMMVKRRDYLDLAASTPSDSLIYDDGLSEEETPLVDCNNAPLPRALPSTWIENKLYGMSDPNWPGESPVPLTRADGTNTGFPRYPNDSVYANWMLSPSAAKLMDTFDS
Chain of Coiled-coil domain-containing protein 6/Proto-oncogene tyrosine-protein kinase receptor Ret (Q16204 whole entry, further chain, the tested form may be a part): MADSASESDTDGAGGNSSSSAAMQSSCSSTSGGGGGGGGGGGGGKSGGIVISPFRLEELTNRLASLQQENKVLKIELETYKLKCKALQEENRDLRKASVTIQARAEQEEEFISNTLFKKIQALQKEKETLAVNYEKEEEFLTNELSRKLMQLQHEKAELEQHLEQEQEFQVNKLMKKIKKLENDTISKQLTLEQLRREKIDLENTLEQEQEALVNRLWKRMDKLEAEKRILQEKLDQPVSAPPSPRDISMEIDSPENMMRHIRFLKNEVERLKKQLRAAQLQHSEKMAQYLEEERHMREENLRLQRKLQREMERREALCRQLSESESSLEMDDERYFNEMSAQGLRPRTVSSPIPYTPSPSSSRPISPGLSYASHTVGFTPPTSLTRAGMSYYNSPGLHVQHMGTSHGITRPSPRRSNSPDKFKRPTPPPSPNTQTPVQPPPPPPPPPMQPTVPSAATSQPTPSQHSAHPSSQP

[6] = target: Potassium voltage-gated channel subfamily H member 2 (Homo sapiens, UniProt Q12809); assay: Inhibition of hERG Potassium Channel
Protocol: Whole-cell patch-clamp recording was carried out. […] This procedure was repeated every 20 seconds. The hERG tail current was a pure hERG current.

Chain of Proto-oncogene tyrosine-protein kinase receptor Ret (P07949 whole entry): as the sequence (P07949 whole entry, the tested form may be a part) above

SMILES	IC50 [1] [nM]	IC50 [2] [nM]	IC50 [3] [nM]	IC50 [4]	IC50 [5] [nM]	IC50 [6] [µM]
COc1ccc(CN2C3CC2CN(c2ccc(-c4cc(N5CC(C)(C)OC5C5CC5)cn5ncc(C#N)c45)cn2)C3)cn1 (stereo unspecified) [US20230322769, Compound 80]	21.6	566	–	–	–	–
COc1ccc(CN2CCCN(c3ccc(-c4cc(-c5cc6n(n5)CCC6)cn5ncc(C#N)c45)cn3)CC2)cn1 [US20230322769, Compound 70]	26.6	387	42.8	111 nM	30.7	4.74
COc1ccc(CN2CCC(n3cc(-c4cc(-c5cnn(C)c5)cn5ncc(C#N)c45)cn3)CC2)cn1 [US20230322769, Compound 43]	30.9	–	53.1	242 nM	–	–
COc1ccc(CN2C3CC2CN(c2ccc(-c4cc(N5CC6CC(C5)N6C)cn5ncc(C#N)c45)cn2)C3)cn1 [US20230322769, Compound 17]	5.5	551	1.7	3.82 nM	–	–
COc1ccc(CN2C3CC2CN(c2ccc(-c4cc(N5CCNCC5)cn5ncc(C#N)c45)cn2)C3)cn1 [US20230322769, Compound 96]	5.24	240	–	–	–	–
COc1ccc(CN2C3CC2CN(c2ccc(-c4cc(N(CC5CC5)CC(C)(C)O)cn5ncc(C#N)c45)cn2)C3)cn1 [US20230322769, Compound 81]	193	612	–	–	–	–
COc1ccc(CN(C)CCN(C)c2ccc(-c3cc(-c4cnn(C)c4)cn4ncc(C#N)c34)cn2)cn1 [US20230322769, Compound 17-a]	27.9	–	48.4	128 nM	17.2	–
COc1ccc(CN2C3CC2CN(c2ccc(-c4cc(N5CCOC[C@@H]5C)cn5ncc(C#N)c45)cn2)C3)cn1 [US20230322769, Compound 84]	24.8	–	–	–	–	–
COc1ccc(CN2C3CC2CN(c2ccc(-c4cc(N5CCOC[C@H]5C)cn5ncc(C#N)c45)cn2)C3)cn1 [US20230322769, Compound 85]	19	–	–	–	–	–
COc1ccc(CN2C3CC2CN(c2ccc(-c4cc(N5CCOCC5)cn5ncc(C#N)c45)cn2)C3)cn1 [US20230322769, Compound 65]	1.09	92.8	0.92	3.37 nM	0.52	–
COc1ccc(CN2C3CC2CN(c2ccc(-c4cc(-c5cc6n(n5)CCC6)cn5ncc(C#N)c45)cn2)C3)cn1 [US20230322769, Compound 66]	2.24	–	4.06	4.33 nM and 7.69 nM	–	–
COc1ccc(CN2C3CC2CN(c2ccc(-c4cc(NCC(C)(C)O)cn5ncc(C#N)c45)cn2)C3)cn1 [US20230322769, Compound 78]	1.28	51.9	5.47	8.23 nM	4.6	–
COc1ccc(CN2C3CC2CN(c2ccc(-c4cc(N5CCP(C)(=O)CC5)cn5ncc(C#N)c45)cn2)C3)cn1 [US20230322769, Compound 20]	4.1	340	1.45	3.23 nM	2.14	–
COc1ccc(CN2C3CC2CN(c2ccc(-c4cc(N5CCN(C)C(=O)C5)cn5ncc(C#N)c45)cn2)C3)cn1 [US20230322769, Compound 89]	0.674	157	1.47	4.72 nM	3.04	–
COc1ccc(CN2C3CC2CN(c2ccc(-c4cc(N5CC(C)(O)C5)cn5ncc(C#N)c45)cn2)C3)cn1 [US20230322769, Compound 86]	4.56	71.3	–	–	–	–
COc1ccc(CN2C3CC2CN(c2ccc(-c4cc(N5CC6(COC6)C5)cn5ncc(C#N)c45)cn2)C3)cn1 [US20230322769, Compound 88]	7.22	96.9	–	–	–	–
COc1ccc(CN2CCN(c3nc(-c4cc(-c5cnn(C)c5)cn5ncc(C#N)c45)cs3)CC2)cn1 [US20230322769, Compound 39]	98.3	–	326	860 nM	–	–
COc1ccc(CN2C3CC2CN(c2ccc(-c4cc(N5CCOC(C)C5)cn5ncc(C#N)c45)cn2)C3)cn1 (stereo unspecified) [US20230322769, Compound 83]	15.8	–	–	–	–	–
COc1ccc(CN2C3CC2CN(c2ccc(-c4cc(N5CCCC(O)C5)cn5ncc(C#N)c45)cn2)C3)cn1 (stereo unspecified) [US20230322769, Compound 82]	10.7	280	–	–	–	–
COc1ccc(C(=O)N2CCN(c3ccc(-c4cc(-c5cc6n(n5)CCC6)cn5ncc(C#N)c45)cn3)CC2)cn1 [US20230322769, Compound 68]	12.6	186	10.7	26.3 nM	6.01	–
COc1ccc(CN2C3CC2CN(c2ccc(-c4cc(N5CC6CC(C5)N6)cn5ncc(C#N)c45)cn2)C3)cn1 [US20230322769, Compound 16]	8.4	406	2.42	4.78 nM	3.65	–
COc1ccc(CN2C3CC2CN(c2ccc(-c4cc(N5CCN(C)CC5)cn5ncc(C#N)c45)cn2)C3)cn1 [US20230322769, Compound 94]	–	154	2.78	–	3	–
